Data: ChEMBL document CHEMBL1201862, “PubChem BioAssay data set” (2004)
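Assay format: 96-well plates, 48-hour exposure. The concentration for 50% growth inhibition is given as GI50.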 Calls of active or inactive are those of the source. Cut-off read from the data, not from the text of the source: active = GI50 up to about 1.1 µM and inactive = higher.

Assays:
Assay in all cases: DTP human tumour cell line panel, 48 h
Malme-3M = test system: Malme-3M
CAKI-1 = test system: CAKI-1
LOX IMVI = test system: LOX IMVI
EKVX = test system: EKVX
SF-295 = test system: SF-295
SK-MEL-28 = test system: SK-MEL-28
KM12 = test system: KM12
SN12C = test system: SN12C
SNB-75 = test system: SNB-75
HT-29 = test system: HT-29
NCI-H226 = test system: NCI-H226
SK-MEL-2 = test system: SK-MEL-2
A549 = test system: A549
HCC 2998 = test system: HCC 2998
RXF 393 = test system: RXF 393
UO-31 = test system: UO-31
SF-539 = test system: SF-539
U-251 = test system: U-251

Measured: GI50

O=C(Nc1cccc(C(F)(F)F)c1)C(=O)C1NC(=S)NC1=O (stereo unspecified)
inactive: Malme-3M > 100 µM | CAKI-1 > 100 µM | LOX IMVI 72.9 µM | EKVX > 100 µM | SF-295 > 100 µM | SK-MEL-28 > 100 µM | KM12 > 100 µM | SN12C > 100 µM | SNB-75 > 100 µM | HT-29 61.9 µM | NCI-H226 > 100 µM | SK-MEL-2 > 100 µM | A549 > 100 µM | HCC 2998 > 100 µM | RXF 393 > 100 µM | UO-31 > 100 µM | SF-539 > 100 µM

Cn1c(=O)c(/N=N/c2c(=O)n(C)c(=O)n3c2[nH]c2ccccc23)c2[nH]c3ccccc3n2c1=O
inactive: Malme-3M > 100 µM | CAKI-1 > 100 µM | LOX IMVI 6.24 µM | EKVX > 100 µM | U-251 22.4 µM | SF-295 12.4 µM | SK-MEL-28 > 100 µM | KM12 > 100 µM | SNB-75 29.1 µM | HT-29 > 100 µM | NCI-H226 36.3 µM | SK-MEL-2 > 100 µM | A549 92.7 µM | HCC 2998 > 100 µM | RXF 393 > 100 µM | UO-31 87.3 µM | SF-539 57.4 µM

Cc1nc(N2N=C(c3ccc(Cl)cc3)CCC2=O)sc1[N+](=O)[O-]
inactive: Malme-3M > 100 µM | CAKI-1 > 100 µM | LOX IMVI > 100 µM | EKVX 67.6 µM | U-251 > 100 µM | SF-295 > 100 µM | SK-MEL-28 > 100 µM | KM12 > 100 µM | SN12C > 100 µM | SNB-75 > 100 µM | HT-29 > 100 µM | NCI-H226 > 100 µM | SK-MEL-2 > 100 µM | A549 > 100 µM | HCC 2998 > 100 µM | RXF 393 > 100 µM | UO-31 > 100 µM | SF-539 > 100 µM

COc1cc2c(cc1OC)C(Cc1cc(Br)c(OC)c(OC)c1)=[N+](C)CC2
inactive: Malme-3M > 100 µM | CAKI-1 > 100 µM | LOX IMVI 39.3 µM | EKVX > 100 µM | U-251 8.17 µM | SF-295 30.5 µM | SK-MEL-28 > 100 µM | KM12 > 100 µM | SN12C 87.3 µM | SNB-75 94.4 µM | HT-29 33.2 µM | NCI-H226 31.6 µM | SK-MEL-2 > 100 µM | A549 34.8 µM | HCC 2998 > 100 µM | RXF 393 69.7 µM | UO-31 > 100 µM | SF-539 > 100 µM

Cc1ccc(S(=O)(=O)NC(=O)NCCc2ccccc2)cc1
inactive: Malme-3M > 100 µM | CAKI-1 > 100 µM | LOX IMVI > 100 µM | EKVX > 100 µM | U-251 > 100 µM | SF-295 > 100 µM | SK-MEL-28 > 100 µM | KM12 > 100 µM | SN12C > 100 µM | SNB-75 68.2 µM | NCI-H226 > 100 µM | SK-MEL-2 > 100 µM | A549 > 100 µM | HCC 2998 > 100 µM | RXF 393 77.6 µM | UO-31 51.8 µM | SF-539 > 100 µM

O=c1[nH]c(-c2ccccc2)nc2ccc(Cl)cc12
inactive: Malme-3M 48.6 µM | CAKI-1 20.9 µM | EKVX 54.7 µM | U-251 > 100 µM | SF-295 73.6 µM | SK-MEL-28 23.4 µM | KM12 68.5 µM | SN12C 41 µM | HT-29 36.8 µM | NCI-H226 > 100 µM | SK-MEL-2 47 µM | A549 > 100 µM | HCC 2998 > 100 µM | RXF 393 20 µM | UO-31 48.1 µM | SF-539 > 100 µM

NCCCNCc1c2ccccc2c(CNCCCN)c2ccccc12
inactive: Malme-3M 11.7 µM | CAKI-1 30.5 µM | EKVX 20.3 µM | U-251 33.4 µM | SF-295 22.3 µM | SK-MEL-28 > 10 µM | KM12 19.2 µM | SN12C 3.66 µM | SNB-75 19.8 µM | HT-29 18.2 µM | SK-MEL-2 14.9 µM | A549 19.2 µM | HCC 2998 17 µM | RXF 393 15.2 µM | UO-31 37.8 µM | SF-539 14.6 µM

O=C(NNC(=O)/C(=C/c1cccc([N+](=O)[O-])c1)NC(=O)c1ccccc1)Nc1ccc(Cl)cc1
inactive: Malme-3M 14.2 µM | CAKI-1 19.9 µM | LOX IMVI 15.6 µM | EKVX 18.7 µM | U-251 14.2 µM | SF-295 18.7 µM | SK-MEL-28 15.5 µM | KM12 11.4 µM | SN12C 14.5 µM | SNB-75 13.6 µM | HT-29 14.1 µM | NCI-H226 15.1 µM | SK-MEL-2 12.2 µM | A549 14.3 µM | HCC 2998 13.1 µM | RXF 393 11 µM | UO-31 13.5 µM | SF-539 16.7 µM

O=C(OCc1ccccc1C1CSCSC1)c1cc(C(=O)OCc2ccccc2C2CSCSC2)c(C(=O)OCc2ccccc2C2CSCSC2)cc1C(=O)OCc1ccccc1C1CSCSC1
inactive: Malme-3M > 100 µM | CAKI-1 > 100 µM | LOX IMVI > 100 µM | U-251 > 100 µM | SF-295 > 100 µM | SK-MEL-28 > 100 µM | KM12 > 100 µM | SN12C > 100 µM | SNB-75 29.4 µM | HT-29 > 100 µM | NCI-H226 > 100 µM | SK-MEL-2 > 100 µM | A549 > 100 µM | RXF 393 > 100 µM | UO-31 > 100 µM | SF-539 > 100 µM

O=C(CSc1nnc(-c2ccc(/N=C\c3ccc(Cl)cc3)cc2)o1)Nc1ccc(Cl)cc1Cl
inactive: Malme-3M 21.5 µM | CAKI-1 > 100 µM | EKVX 34.1 µM | U-251 25.2 µM | SF-295 27.2 µM | SK-MEL-28 28 µM | KM12 28.6 µM | SN12C 24 µM | SNB-75 22.7 µM | HT-29 25.8 µM | NCI-H226 19.7 µM | SK-MEL-2 25.2 µM | A549 > 100 µM | HCC 2998 > 100 µM | RXF 393 68.7 µM | UO-31 33 µM | SF-539 22.2 µM

N#Cc1ccccc1/C=N/O
inactive: Malme-3M > 100 µM | CAKI-1 > 100 µM | LOX IMVI > 100 µM | EKVX > 100 µM | U-251 > 81.1 µM | SF-295 > 100 µM | SK-MEL-28 > 100 µM | KM12 > 100 µM | SN12C > 100 µM | SNB-75 > 69.5 µM | HT-29 > 75.3 µM | NCI-H226 > 100 µM | A549 > 100 µM | HCC 2998 > 100 µM | RXF 393 > 100 µM | UO-31 > 100 µM | SF-539 > 100 µM

COC(=O)C1=C(C[S+]([O-])c2ccc([N+](=O)[O-])cc2[N+](=O)[O-])ON(C)C1c1ccccc1 (stereo unspecified)
inactive: Malme-3M > 84.5 µM | CAKI-1 28 µM | LOX IMVI 14.9 µM | EKVX > 64.6 µM | U-251 31.3 µM | SF-295 46.8 µM | SK-MEL-28 24.2 µM | KM12 37.2 µM | SN12C 29.4 µM | SNB-75 16.3 µM | HT-29 20.2 µM | NCI-H226 65.2 µM | SK-MEL-2 37 µM | A549 99.8 µM | HCC 2998 > 37.8 µM | RXF 393 > 42.2 µM | UO-31 39.4 µM | SF-539 21.9 µM

C/C(=N\Nc1ccccc1)c1sc(-c2nc(C)c(/C(C)=N/Nc3ccccc3)s2)nc1C
inactive: Malme-3M 16.1 µM | CAKI-1 > 58.2 µM | LOX IMVI 7.96 µM | EKVX 24.7 µM | U-251 37.1 µM | SF-295 9.98 µM | SK-MEL-28 > 48.2 µM | KM12 24.7 µM | SN12C > 78.2 µM | SNB-75 23.4 µM | HT-29 9.06 µM | NCI-H226 40.4 µM | SK-MEL-2 > 100 µM | A549 13.5 µM | HCC 2998 7.93 µM | RXF 393 22.8 µM | UO-31 8.83 µM | SF-539 16.1 µM

Fc1ccccc1C1CC(c2ccc3ccccc3c2)=Nc2ccccc2S1 (stereo unspecified)
inactive: Malme-3M > 100 µM | CAKI-1 > 100 µM | LOX IMVI > 100 µM | EKVX > 100 µM | U-251 > 100 µM | SF-295 > 100 µM | SK-MEL-28 > 100 µM | KM12 > 100 µM | SN12C > 100 µM | HT-29 > 100 µM | NCI-H226 > 100 µM | SK-MEL-2 > 100 µM | A549 > 100 µM | HCC 2998 4.27 µM | RXF 393 > 100 µM | UO-31 > 100 µM | SF-539 > 100 µM

CC(O)C(C(=O)O)N(CC1(O)OCC(O)C(O)C1O)N=O (stereo unspecified)
inactive: Malme-3M > 100 µM | LOX IMVI > 100 µM | EKVX > 100 µM | U-251 > 100 µM | SK-MEL-28 > 100 µM | KM12 > 100 µM | SNB-75 > 100 µM | HT-29 > 100 µM | SK-MEL-2 > 100 µM | A549 > 100 µM | HCC 2998 > 100 µM | RXF 393 > 100 µM | UO-31 > 100 µM | SF-539 > 100 µM

Brc1ccccc1C1SCc2nc3ccccc3n21 (stereo unspecified)
inactive: Malme-3M 18.8 µM | CAKI-1 20.7 µM | LOX IMVI 13.2 µM | EKVX 17.3 µM | U-251 15.7 µM | SF-295 23.8 µM | SK-MEL-28 > 10 µM | KM12 15.9 µM | SN12C 12.8 µM | SNB-75 21.7 µM | HT-29 23.5 µM | NCI-H226 17.1 µM | SK-MEL-2 15.5 µM | A549 26.1 µM | RXF 393 9.33 µM | UO-31 10.4 µM | SF-539 17.4 µM
